For this experiment, the target named is T1, human PD-1 / PD-L1-Ig binding on Jurkat cell line over-expressing human PD-1 (Jurkat-PD-1) (Homo sapiens, UniProt Q15116).
T1 construct: expressed in transfected cells; host or cells: Jurkat
The experiment is described as follows: Jurkat-PD-1 Cell Binding High-Content Screening Assay (CBA). Particulars: Jurkat-PD-1 cells, PE-labeled PD-L1-Ig 20 nM final; read-out: Jurkat HPD1_PDL1 IC50. It is filed as cell-based. The gist of the method:
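Compounds were preincubated with Jurkat-hPD-1 cells in DMEM plus 10% fetal calf serum for 2 h at 37° C. Phycoerythrin-labeled PD-L1-Ig (20 nM final) was then added for 1 hour. Cells were fixed in 4% paraformaldehyde with Hoechst 33342, and bound fluorescence was quantified by high-content imaging.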

Where a SMILES comes first, the peptide text is derived from it. Bridges are numbered along the chain shown (N, C = ends). [ ]: non-standard residue; d: D form. The star is where a group is joined. Phe(4-COOH) = N[C@@H](Cc1ccc(C(=O)O)cc1)C(=O)O; Bip = N[C@@H](Cc1ccc(-c2ccccc2)cc1)C(=O)O; Phe(3-Me) = Cc1cccc(C[C@H](N)C(=O)O)c1; Cha = N[C@@H](CC1CCCCC1)C(=O)O; Cit = NC(=O)NCCC[C@H](N)C(=O)O; dOrn = NCCC[C@@H](N)C(=O)O; Carboxymethyl = O=C(O)C*; Orn = NCCC[C@H](N)C(=O)O; Dab = NCC[C@H](N)C(=O)O

T1 sequence (Q15116 25-288): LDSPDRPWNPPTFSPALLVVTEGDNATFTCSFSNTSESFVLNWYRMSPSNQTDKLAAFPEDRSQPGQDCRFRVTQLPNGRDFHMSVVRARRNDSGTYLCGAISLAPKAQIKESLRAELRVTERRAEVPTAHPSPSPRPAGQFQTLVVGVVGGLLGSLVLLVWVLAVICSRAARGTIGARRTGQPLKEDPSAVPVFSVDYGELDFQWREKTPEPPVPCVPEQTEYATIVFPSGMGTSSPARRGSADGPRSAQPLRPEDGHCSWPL

As for `CC(C)C[C@H]1NC(=O)[C@H](CCCN)NC(=O)[C@H](CCC(=O)O)NC(=O)[C@H](Cc2ccc(-c3ccccc3)cc2)NC(=O)[C@H](C(C)C)NC(=O)[C@H](Cc2c[nH]c3ccccc23)NC(=O)[C@H](CC(=O)O)NC(=O)[C@H](Cc2cccs2)NC(=O)[C@H](Cc2ccc(OCC(=O)O)cc2)NC(=O)CSC[C@@H](C(=O)N[C@@H](C)C(N)=O)NC(=O)[C@H]([C@@H](C)O)NC(=O)[C@H](C(C)C)NC(=O)[C@H](CC2CCCCC2)NC(=O)[C@H](CCN)NC1=O` [Compound 2193], the IC50 came out at 23.4 nM. To `CC(C)C[C@H]1NC(=O)[C@H](CCCN)NC(=O)[C@H](CCC(=O)O)NC(=O)[C@H](Cc2ccc(-c3ccccc3)cc2)NC(=O)[C@H](C(C)C)NC(=O)[C@H](Cc2cccc(Cl)c2)NC(=O)[C@H](CC(=O)O)NC(=O)[C@H](Cc2ccc(OCC(=O)O)cc2)NC(=O)[C@H](CN)NC(=O)CSC[C@@H](C(=O)N[C@@H](C)C(N)=O)NC(=O)[C@H]([C@@H](C)O)NC(=O)[C@H](C(C)C)NC(=O)[C@H](CC2CCCCC2)NC(=O)[C@H](CCN)NC1=O` [Compound 1495] belongs 5.8 nM; to `Cc1cccc(C[C@@H]2NC(=O)[C@H](CC(=O)O)NC(=O)[C@H](Cc3ccc(C(=O)O)cc3)NC(=O)[C@H](Cc3ccc(OCC(=O)O)cc3)NC(=O)CSC[C@@H](C(=O)N[C@@H](C)C(N)=O)NC(=O)[C@H]([C@@H](C)O)NC(=O)[C@H](C(C)C)NC(=O)[C@H](CC(C)C)NC(=O)[C@H](CCN)NC(=O)[C@@H](CC(C)C)NC(=O)[C@H](CCCN)NC(=O)[C@H](CCCNC(N)=O)NC(=O)[C@H](Cc3ccc(-c4ccccc4)cc3)NC(=O)[C@H](C(C)C)NC2=O)c1` [Compound 1251] ({CH2CO}-Y(Carboxymethyl)[Phe(4-COOH)]D[Phe(3-Me)]V[Bip][Cit][Orn][dL][Dab]LVTCA-NH2; thioether N-14), 7.9 nM. As to `CC(C)C[C@@H]1NC(=O)[C@H](Cc2c[nH]c3ccccc23)NC(=O)[C@H](CC(=O)O)NC(=O)[C@H](Cc2ccc(O)cc2)NC(=O)[C@H](Cc2ccccc2)NC(=O)CSC[C@@H](C(=O)N[C@@H](C)C(N)=O)NC(=O)[C@H](CO)NC(=O)[C@H](C(C)C)NC(=O)[C@H](CC(C)C)NC(=O)[C@H](CC(N)=O)NC(=O)[C@@H](C)NC(=O)[C@@H](CCCN)NC(=O)[C@H](C(C)C)NC(=O)[C@H](Cc2ccc(-c3ccccc3)cc2)NC1=O` [Compound 2001] ({CH2CO}-FYDWL[Bip]V[dOrn][dA]NLVSCA-NH2; thioether N-14), the IC50 was determined as 42.1 nM. With `CC(C)C[C@H]1NC(=O)[C@H](CCCN)NC(=O)[C@H](CCN)NC(=O)[C@H](Cc2ccc(-c3ccccc3)cc2)NC(=O)[C@H](C(C)C)NC(=O)[C@H](Cc2c[nH]c3ccccc23)NC(=O)[C@H](CC(=O)O)NC(=O)[C@H](Cc2ccc(O)cc2)NC(=O)[C@H](CC(N)=O)NC(=O)CSC[C@@H](C(=O)N[C@@H](C)C(N)=O)NC(=O)[C@H]([C@@H](C)O)NC(=O)[C@H](C(C)C)NC(=O)[C@H](CC2CCCCC2)NC(=O)[C@H](CCN)NC1=O` [Compound 1379], the IC50 turned out to be 33 nM. Consider `CCC(C)[C@@H]1NC(=O)[C@H](Cc2ccc(-c3ccccc3)cc2)NC(=O)[C@H](C(C)C)NC(=O)[C@H](Cc2cc(C)ccc2C)NC(=O)[C@H](CC(=O)O)NC(=O)[C@H](Cc2ccc(OCC(=O)O)cc2)NC(=O)[C@H](CN)NC(=O)CSC[C@@H](C(=O)N[C@@H](C)C(N)=O)NC(=O)[C@H]([C@@H](C)O)NC(=O)[C@H](C(C)C)NC(=O)[C@H](CC2CCCCC2)NC(=O)[C@H](CCN)NC(=O)[C@@H](CC(C)C)NC(=O)[C@H](CCCN)NC1=O` (stereo partly drawn) [Compound 2241], for which the IC50 was 32.4 nM. To `CC(C)C[C@H]1NC(=O)[C@H](CCCN)NC(=O)[C@H](CCC(=O)O)NC(=O)[C@H](Cc2ccc(-c3ccccc3)cc2)NC(=O)[C@H](C(C)C)NC(=O)[C@H](Cc2c[nH]c3ccccc23)NC(=O)[C@H](CC(=O)O)NC(=O)[C@H](Cc2ccc(C(=O)O)cc2)NC(=O)[C@H](Cc2ccccc2)NC(=O)CSC[C@@H](C(=O)N[C@@H](C)C(N)=O)NC(=O)[C@H]([C@@H](C)O)NC(=O)[C@H](C(C)C)NC(=O)[C@H](CC2CCCCC2)NC(=O)[C@H](CCN)NC1=O` [Compound 2158] ({CH2CO}-F[Phe(4-COOH)]DWV[Bip]E[Orn][dL][Dab][Cha]VTCA-NH2; thioether N-14) belongs 7.7 nM; to `CC(C)C[C@H]1NC(=O)[C@H](CCCN)NC(=O)[C@H](CCCNC(N)=O)NC(=O)[C@H](Cc2ccc(-c3ccccc3)cc2)NC(=O)[C@H](C(C)C)NC(=O)[C@H](Cc2c[nH]c3ccccc23)NC(=O)[C@H](CC(=O)O)NC(=O)[C@H](Cc2ccc(OCC(=O)O)cc2)NC(=O)[C@H](CN)NC(=O)CSC[C@@H](C(=O)N[C@@H](C)C(N)=O)NC(=O)[C@H]([C@@H](C)O)NC(=O)[C@H](C(C)C)NC(=O)[C@H](CC2CC2)NC(=O)[C@H](CCN)NC1=O` [Compound 1363], 34.5 nM. As for `CC(C)C[C@@H]1NC(=O)[C@H](Cc2c[nH]c3ccccc23)NC(=O)[C@H](CC(=O)O)NC(=O)[C@H](Cc2ccc(O)cc2)NC(=O)[C@H](Cc2ccccc2)NC(=O)CSC[C@@H](C(=O)N[C@@H](C)C(N)=O)NC(=O)[C@H](CO)NC(=O)[C@H](C(C)C)NC(=O)[C@H](CC(C)C)NC(=O)[C@H](CCN)NC(=O)[C@@H](C)NC(=O)[C@H](CCN)NC(=O)[C@H](C(C)C)NC(=O)[C@H](Cc2ccc(-c3ccccc3)cc2)NC1=O` [Compound 1104] ({CH2CO}-FYDWL[Bip]V[Dab][dA][Dab]LVSCA-NH2; thioether N-14), the IC50 was 43.6 nM. With `CC(C)C[C@H]1NC(=O)[C@H](CCCN)NC(=O)[C@H](C(C)C)NC(=O)[C@H](Cc2ccc(-c3ccccc3)cc2)NC(=O)[C@H](C(C)C)NC(=O)[C@H](Cc2cccc(C(F)(F)F)c2)NC(=O)[C@H](CC(=O)O)NC(=O)[C@H](Cc2ccc(OCC(=O)O)cc2)NC(=O)[C@H](Cc2ccncc2)NC(=O)CSC[C@@H](C(=O)N[C@@H](C)C(N)=O)NC(=O)[C@H]([C@@H](C)O)NC(=O)[C@H](C(C)C)NC(=O)[C@H](CC2CCCCC2)NC(=O)[C@H](CCN)NC1=O` [Compound 1577], the IC50 was determined as 12.1 nM.

Turning to `CC(C)C[C@@H]1NC(=O)[C@H](Cc2c[nH]c3ccccc23)NC(=O)[C@H](CC(=O)O)NC(=O)[C@H](Cc2ccc(O)cc2)NC(=O)[C@H](Cc2ccccc2)NC(=O)CSC[C@@H](C(=O)N[C@@H](C)C(N)=O)NC(=O)[C@H](CO)NC(=O)[C@H](C(C)C)NC(=O)[C@H](CC(C)C)NC(=O)[C@H](CC(N)=O)NC(=O)[C@@H](C)NC(=O)[C@H](CCN)NC(=O)[C@H](C(C)C)NC(=O)[C@H](Cc2ccc(-c3ccccc3)cc2)NC1=O` [Compound 1100] ({CH2CO}-FYDWL[Bip]V[Dab][dA]NLVSCA-NH2; thioether N-14), the IC50 was 41.4 nM.

Turning to `CC(C)C[C@@H]1NC(=O)[C@H](CCN)NC(=O)[C@@H](CC(C)C)NC(=O)[C@H](CCCN)NC(=O)[C@H](C(C)C)NC(=O)[C@H](Cc2ccc(-c3ccccc3)cc2)NC(=O)[C@H](C(C)C)NC(=O)[C@H](Cc2c[nH]c3ccccc23)NC(=O)[C@H](CC(=O)O)NC(=O)[C@H](Cc2ccc(C(=O)O)cc2)NC(=O)[C@H](Cc2ccc(OCC(=O)O)cc2)NC(=O)CSC[C@@H](C(=O)N[C@@H](C)C(N)=O)NC(=O)[C@H]([C@@H](C)O)NC(=O)[C@H](C(C)C)NC1=O` [Compound 1248] ({CH2CO}-Y(Carboxymethyl)[Phe(4-COOH)]DWV[Bip]V[Orn][dL][Dab]LVTCA-NH2; thioether N-14), the IC50 worked out at 12.4 nM.

The record behind these values is patent US20250163104A1, “MACROCYCLIC IMMUNOMODULATORS” (priority 2021, published 2025).
